The values below come from patent US11013726B2 (Arbutus Biopharma Corporation, priority 2016, dated 2021).

The test system of this assay is HBsAg. Put plainly: HBsAg assay. The assay is classed as cell-based, hepatitis B virus. As to conditions: Hepatitis B virus, HepG2.2.15, 144 h, read-out: sAg EC50, μM, HepG2.2.15 cells, day 6. The gist of the method:
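HepG2.2.15 cells were treated with serially diluted compounds (0.5% DMSO), with medium and compound renewed after 2-3 days. Secreted HBsAg measured at day 6 by chemiluminescence immunoassay; EC50 from dose-response curves. Viability assessed in parallel by CellTiter-Glo.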

Where a name gives a salt, the structure may show the parent alone.

`COCCCOc1cc2c(cc1Cl)-c1cc(=O)c(NC(=O)OC(C)(C)C)cn1C(C(C)(C)C)C2` (centres unmarked) [Example 119, Tert-butyl N-[6-tert-butyl-10-chloro-9-(3-methoxypropoxy)-2-oxo-6H,7H-pyrido[2,1-a]isoquinolin-3-yl]carbamate]: the EC50 (as a rule, the midpoint of the concentration-response curve) came out at 0.14 µM. Turning to `COCCCOc1cc2c(cc1Cl)-c1cc(=O)c(N)cn1C(C(C)(C)C)C2` (centres unmarked) [Example 120, 3-Amino-6-tert-butyl-10-chloro-9-(3-methoxypropoxy)-6H,7H-pyrido[2,1-a]isoquinolin-2-one hydrochloride], the EC50 is 3.9 µM. The same measure for `COCCCOc1cc2c(cc1Cl)-c1cc(=O)c(NC(C)=O)cn1C(C(C)(C)C)C2` (centres unmarked) [Example 121, N-[6-Tert-butyl-10-chloro-9-(3-methoxypropoxy)-2-oxo-6H,7H-pyrido[2,1-a]isoquinolin-3-yl]acetamide]: 8.6 µM. For `COCCCOc1cc2c(cc1Cl)-c1cc(=O)c(NC(=O)OC)cn1C(C(C)(C)C)C2` (centres unmarked) [Example 122, Methyl N-[6-tert-butyl-10-chloro-9-(3-methoxypropoxy)-2-oxo-6H,7H-pyrido[2,1-a]isoquinolin-3-yl]carbamate], the EC50 amounted to 17 µM. The same measure for `COCCCOc1cc2c(cc1Cl)-c1cc(=O)c(NC(=O)OCc3ccccn3)cn1C(C(C)(C)C)C2` (centres unmarked) [Example 123, Pyridin-2-ylmethyl (6-(tert-butyl)-10-chloro-9-(3-methoxypropoxy)-2-oxo-6,7-dihydro-2H-pyrido[2,1-a]isoquinolin-3-yl)carbamate]: 2.4 µM. `COCCCOc1cc2c(cc1Cl)-c1cc(=O)c(NC(=O)OCC(C)(C)C)cn1C(C(C)(C)C)C2` (centres unmarked) [Example 124, Neopentyl (6-(tert-butyl)-10-chloro-9-(3-methoxypropoxy)-2-oxo-6,7-dihydro-2H-pyrido[2,1-a]isoquinolin-3-yl)carbamate]: the EC50 is 16 µM. The same measure for `COCCCOc1cc2c(cc1Cl)-c1cc(=O)c(N3C(=O)CCC3=O)cn1C(C(C)(C)C)C2` (centres unmarked) [Example 125, 1-[6-Tert-butyl-10-chloro-9-(3-methoxypropoxy)-2-oxo-6H,7H-pyrido[2,1-a]isoquinolin-3-yl]pyrrolidine-2,5-dione]: 12 µM; for `COCCCOc1cc2c(cc1Cl)-c1cc(=O)c(NC(=O)NC(C)(C)C)cn1C(C(C)(C)C)C2` (centres unmarked) [Example 126, 3-Tert-butyl-1-[6-tert-butyl-10-chloro-9-(3-methoxypropoxy)-2-oxo-6H,7H-pyrido[2,1-a]isoquinolin-3-yl]urea]: 6.1 µM; for `COCCCOc1cc2c(cc1Cl)-c1cc(=O)c(NS(=O)(=O)CC(F)(F)F)cn1C(C(C)(C)C)C2` (centres unmarked) [Example 127, N-[6-Tert-butyl-10-chloro-9-(3-methoxypropoxy)-2-oxo-6H,7H-pyrido[2,1-a]isoquinolin-3-yl]-2,2,2-trifluoroethanesulfonamide]: 15 µM. The figure for `COCCCOc1cc2c(cc1Cl)-c1cc(=O)c(NS(=O)(=O)C(F)(F)F)cn1C(C(C)(C)C)C2` (centres unmarked) [Example 128, N-(6-(Tert-butyl)-10-chloro-9-(3-methoxypropoxy)-2-oxo-6,7-dihydro-2H-pyrido[2,1-a]isoquinolin-3-yl)-1,1,1-trifluoromethanesulfonamide] is 4.7 µM; for `COCCCOc1cc2c(cc1Cl)-c1cc(=O)c(Nc3ncccn3)cn1C(C(C)(C)C)C2` (centres unmarked) [Example 129, 6-(Tert-butyl)-10-chloro-9-(3-methoxypropoxy)-3-(pyrimidin-2-ylamino)-6,7-dihydro-2H-pyrido[2,1-a]isoquinolin-2-one] it is 5.9 µM. With `COCCCOc1cc2c(cc1Cl)-c1cc(=O)c(N(c3ncccn3)c3ncccn3)cn1C(C(C)(C)C)C2` (centres unmarked) [Example 130, 6-(Tert-butyl)-10-chloro-3-(di(pyrimidin-2-yl)amino)-9-(3-methoxypropoxy)-6,7-dihydro-2H-pyrido[2,1-a]isoquinolin-2-one], the EC50 is 0.91 µM. The figure for `COCCCOc1cc2c(cc1Cl)-c1cc(=O)c(I)cn1C(C(C)(C)C)C2` (centres unmarked) [Example 131, 6-Tert-butyl-10-chloro-3-iodo-9-(3-methoxypropoxy)-6H,7H-pyrido[2,1-a]isoquinolin-2-one] is 2.4 µM; for `COCCCOc1cc2c(cc1Cl)-c1cc(=O)c(-c3ncccn3)cn1C(C(C)(C)C)C2` (centres unmarked) [Example 132, 6-Tert-butyl-10-chloro-9-(3-methoxypropoxy)-3-(pyrimidin-2-yl)-6H,7H-pyrido[2,1-a]isoquinolin-2-one] it is 0.078 µM; for `COCCCOc1cc2c(cc1Cl)-c1cc(=O)c(-c3ccccn3)cn1C(C(C)(C)C)C2` (centres unmarked) [Example 133, 6-(Tert-butyl)-10-chloro-9-(3-methoxypropoxy)-3-(pyridin-2-yl)-6,7-dihydro-2H-pyrido[2,1-a]isoquinolin-2-one] it is 4 µM.

For the molecule `COCCCOc1cc2c(cc1Cl)-c1cc(=O)c(NC(=O)OC(C)(C)C)cn1[C@H](C(C)C)CO2` [Example 134, Tert-butyl (R)-(2-chloro-7-isopropyl-3-(3-methoxypropoxy)-11-oxo-6,7-dihydro-11H-benzo[f]pyrido[1,2-d][1,4]oxazepin-10-yl)carbamate], the EC50 was determined as 45 µM. The figure for `COCCCOc1cc2c(cc1Cl)-c1cc(=O)c(-c3ncccn3)cn1[C@H](C(C)C)CO2` [Example 135, (R)-2-Chloro-7-isopropyl-3-(3-methoxypropoxy)-10-(pyrimidin-2-yl)-6,7-dihydro-11H-benzo[f]pyrido[1,2-d][1,4]oxazepin-11-one] is 2 µM. On to `COCCCOc1cc2c(cc1Cl)-c1cc(=O)ccn1[C@H](C(C)C)CO2` [Example 136, (R)-2-Chloro-7-isopropyl-3-(3-methoxypropoxy)-6,7-dihydro-11H-benzo[f]pyrido[1,2-d][1,4]oxazepin-11-one], for which the EC50 came to 0.57 µM.

Regarding `COCCCOc1cc2c(cc1Cl)-c1cc(=O)c(-c3ncccc3C)cn1[C@H](C(C)C)CO2` [Example 137, (R)-2-Chloro-7-isopropyl-3-(3-methoxypropoxy)-10-(3-methylpyridin-2-yl)-6,7-dihydro-11H-benzo[f]pyrido[1,2-d][1,4]oxazepin-11-one], the EC50 came to 10 µM.

For the molecule `COCCCOc1cc2c(cc1Cl)-c1cc(=O)c(-c3ccccn3)cn1[C@H](C(C)C)CO2` [Example 138, (R)-2-Chloro-7-isopropyl-3-(3-methoxypropoxy)-10-(pyridin-2-yl)-6,7-dihydro-11H-benzo[f]pyrido[1,2-d][1,4]oxazepin-11-one], the EC50 was 12 µM. The same measure for `COCCCOc1cc2c(cc1Cl)-c1cc(=O)c(OC)cn1[C@H](C(C)C)CO2` [Example 139, (R)-2-Chloro-7-isopropyl-10-methoxy-3-(3-methoxypropoxy)-6,7-dihydro-11H-benzo[f]pyrido[1,2-d][1,4]oxazepin-11-one]: 14 µM. The same measure for `COCCCOc1cc2c(cc1Cl)-c1cc(=O)c(B(O)O)cn1[C@H](C(C)C)CO2` [Example 140, (R)-(2-Chloro-7-isopropyl-3-(3-methoxypropoxy)-11-oxo-6,7-dihydro-11H-benzo[f]pyrido[1,2-d][1,4]oxazepin-10-yl)boronic acid]: 2.1 µM. The figure for `COCCCOc1cc2c(cc1Cl)-c1cc(=O)c(N(C)C(=O)OC(C)(C)C)cn1[C@H](C(C)C)CO2` [Example 141, Tert-butyl (R)-(2-chloro-7-isopropyl-3-(3-methoxypropoxy)-11-oxo-6,7-dihydro-11H-benzo[f]pyrido[1,2-d][1,4]oxazepin-10-yl)(methyl)carbamate] is 1 µM; for `COCCCOc1cc2c(nc1OC)-c1cc(=O)c(C(C)=O)cn1C(C(C)C)C2` (centres unmarked) [Example 142, 9-Acetyl-6-isopropyl-2-methoxy-3-(3-methoxypropoxy)-5,6-dihydro-10H-pyrido[1,2-h][1,7]naphthyridin-10-one] it is 0.62 µM. As for `COCCCOc1cc2c(nc1OC)-c1cc(=O)c(C(C)(C)O)cn1C(C(C)C)C2` (centres unmarked) [Example 143, 9-(2-Hydroxypropan-2-yl)-6-isopropyl-2-methoxy-3-(3-methoxypropoxy)-5,6-dihydro-10H-pyrido[1,2-h][1,7]naphthyridin-10-one], the EC50 is 0.91 µM. For `COCCCOc1cc2c(cc1Cl)-c1cc(=NO)c(C(=O)OC)cn1C(C(C)(C)C)C2` (centres unmarked) [Example 144, Methyl 6-tert-butyl-10-chloro-2-(hydroxyimino)-9-(3-methoxypropoxy)-6H,7H-pyrido[2,1-a]isoquinoline-3-carboxylate], the EC50 amounted to 0.17 µM.

In the case of `COCCCOc1cc2c(cc1Cl)-c1cc(=NO)c(C(=O)O)cn1C(C(C)(C)C)C2` (centres unmarked) [Example 145, 6-Tert-butyl-10-chloro-2-(hydroxyimino)-9-(3-methoxypropoxy)-6H,7H-pyrido[2,1-a]isoquinoline-3-carboxylic acid], the EC50 was found to be 0.15 µM. With `COCCCOc1cc2c(cc1Cl)-c1cc3noc(=O)c-3cn1C(C(C)(C)C)C2` (centres unmarked) [Example 146, 6-(Tert-butyl)-2-chloro-3-(3-methoxypropoxy)-5,6-dihydro-9H-isoxazolo[3′,4′:4,5]pyrido[2,1-a]isoquinolin-9-one], the EC50 came out at 0.031 µM.

Take `CN=c1cc2n(cc1C(=O)O)C(C(C)C)Cc1cc(OCCCOC)c(OC)cc1-2` (centres unmarked) [Example 147]: the EC50 is 0.65 µM. The same measure for `COCCCOc1cc2c(cc1OC)-c1cc(=NOC)c(C(=O)OC)cn1C(C(C)C)C2` (centres unmarked) [Example 148, Methyl 6-isopropyl-10-methoxy-2-(methoxyimino)-9-(3-methoxypropoxy)-6,7-dihydro-2H-pyrido[2,1-a]isoquinoline-3-carboxylate]: 13 µM; for `COCCCOc1cc2c(cc1OC)-c1cc(=NOC)c(C(=O)O)cn1C(C(C)C)C2` (centres unmarked) [Example 149]: 7.4 µM; for `CCOC(=O)c1cn2c(cc1=NO)-c1cc(Cl)c(OC)cc1OCC2C(C)C` (centres unmarked) [Example 150, Ethyl 2-chloro-11-(hydroxyimino)-7-isopropyl-3-methoxy-6,7-dihydro-11H-benzo[f]pyrido[1,2-d][1,4]oxazepine-10-carboxylate]: 24 µM.
